Laboratory results from patent publication US20240148821A1, “PHARMACEUTICAL USE OF CYCLIC PEPTIDE COMPOUND” (CHUGAI SEIYAKU KABUSHIKI KAISHA, priority 2021, published 2024).
Numbered stars: 1 amine (or outer) side, 2 acyl side, 3 side chain; on linkers, the order of the positions; unused ones are H or OH. Bridge positions count the residues as written; N and C are the ends. Square brackets hold non-standard residues; d marks the D form. Peptide text beside a SMILES is read from it. * marks the point of attachment. hPhe(3,5-F2-4-CF3) = N[C@@H](CCc1cc(F)c(C(F)(F)F)c(F)c1)C(=O)O; hPhe(3-Cl-4-CF3) = N[C@@H](CCc1ccc(C(F)(F)F)c(Cl)c1)C(=O)O; NMePhe(4-CF3) = CN[C@@H](Cc1ccc(C(F)(F)F)cc1)C(=O)O; X105 = C[C@@](Cc1cccc(I)c1)(N[*:1])C(=O)[*:2]; X126 = O=C([C@H](Cc1cc(F)cc(I)c1)N[*:1])[*:2]; 3Oxa8azabicyclo(3.2.1)octane = C1CC2COCC1N2*; NEtPhe(4-Me) = CCN[C@@H](Cc1ccc(C)cc1)C(=O)O; NMeAbu(4,4,4-F3) = CN[C@@H](CC(F)(F)F)C(=O)O; NMePhe(4-Cl) = CN[C@@H](Cc1ccc(Cl)cc1)C(=O)O; NMePhe(4-Me) = CN[C@@H](Cc1ccc(C)cc1)C(=O)O; X59 = Cc1ccc(Br)cc1C[C@H](N[*:1])C(=O)[*:2]; NMePhe(4-F) = CN[C@@H](Cc1ccc(F)cc1)C(=O)O; X64 = O=C([C@H](Cc1ccc(Br)s1)N[*:1])[*:2]; NMeGly(cPent) = CN[C@H](C(=O)O)C1CCCC1; Phe(3-I) = N[C@@H](Cc1cccc(I)c1)C(=O)O; Pro(4,4-F2) = O=C(O)[C@@H]1CC(F)(F)CN1; NMeY = CN[C@@H](Cc1ccc(O)cc1)C(=O)O; NMeCha = CN[C@@H](CC1CCCCC1)C(=O)O; NMeChg = CN[C@H](C(=O)O)C1CCCCC1; NMeD = CN[C@@H](CC(=O)O)C(=O)O; NMeL = CN[C@@H](CC(C)C)C(=O)O; NMeNva = CCC[C@H](NC)C(=O)O; d(β3hA) = C[C@@H](N)CC(=O)O; NMeAbu = CC[C@H](NC)C(=O)O; Morpholide = C1CN(*)CCO1; NMeA = CN[C@@H](C)C(=O)O; NMeAib = CNC(C)(C)C(=O)O; Nle = CCCC[C@H](N)C(=O)O; Piperidide = C1CCN(*)CC1; Pra = C#CC[C@H](N)C(=O)O; Pyrrolidide = C1CCN(*)C1; Ac5c = NC1(C(=O)O)CCCC1; Aze = O=C(O)[C@@H]1CCN1; Ac4c = NC1(C(=O)O)CCC1; CF3 = FC(F)(F)*; Sar = CNCC(=O)O

tested on: Human pancreatic cancer cell line AsPC-1 (G12D mutation Kras); assay: AsPC-1 cell growth inhibition (AsPC-1 CGI); type: cell-based; conditions: read-out: AsPC-1 cell growth inhibition, 50% growth inhibitory concentration (IC50 value); 96 hours, CellTiter-Glo, values classified in ranges
Description: Test compounds were serially dilated with dimethyl sulfoxide, and 200 nL was then dispensed to a U-bottom 96-well plate using Labcyte Echo. […] The cell suspension was dispensed to a. plate containing a test compound at 100 μL per well and incubated at 37° C. in a 5% carbon dioxide gas incubator. 96 hours later, 80 μL of CellTiter-Glo (Promega) was added to each well and fluorescence was measured.

`CC[C@H](C)[C@@H]1NC(=O)[C@H](CC(C)C)N(C)C(=O)C[C@@H](C(=O)N2CCCC2)N(C)C(=O)[C@H](C2CCCCC2)N(C)C(=O)C2(CCC2)NC(=O)[C@@H]2CC(F)(F)CN2C(=O)[C@H](CCc2cc(F)c(C(F)(F)F)c(F)c2)NC(=O)CN(C)C(=O)[C@H](CC2CCCCC2)N(C)C(=O)CN(C)C(=O)CN(C)C1=O` [Compound 1192] ([NMeL]I[Sar][Sar][NMeCha][Sar][hPhe(3,5-F2-4-CF3)][Pro(4,4-F2)][Ac4c][NMeChg][NMeD]-Pyrrolidide; lactam N-11) and `CC[C@H](C)[C@@H]1NC(=O)[C@H](CC(C)C)N(C)C(=O)C[C@@H](C(=O)N2CCOCC2)N(C)C(=O)[C@H](C2CCCCC2)N(C)C(=O)C2(CCCC2)NC(=O)[C@@H]2CC(F)(F)CN2C(=O)[C@H](CCc2ccc(C(F)(F)F)c(Cl)c2)NC(=O)CN(C)C(=O)[C@H](CC2CCCCC2)N(C)C(=O)CN(C)C(=O)CN(C)C1=O` [Compound 1194] ([NMeL]I[Sar][Sar][NMeCha][Sar][hPhe(3-Cl-4-CF3)][Pro(4,4-F2)][Ac5c][NMeChg][NMeD]-Morpholide; lactam N-11) cannot be ordered by IC50: at most 20 nM for the first, at most 20 nM for the second.

`CCCC[C@@H]1NC(=O)[C@H](Cc2cc(Br)ccc2C)NC(=O)CN(C)C(=O)[C@H](Cc2ccc(OC)cc2)N(C)C(=O)[C@@H]2CCN2C(=O)[C@H](C)N(C)C(=O)[C@H]([C@@H](C)CC)NC(=O)[C@H](CC)N(C)C(=O)C[C@@H](C(=O)N2CCCCC2)N(C)C(=O)[C@H](CC(C)C)NC(=O)C(C)(C)N(C)C1=O` [Compound 1195] ([NMeAbu]I[NMeA][Aze][NMeY](Me)[Sar][X59][Nle][NMeAib]L[NMeD]-Piperidide; lactam N-11) and `CCCC[C@@H]1NC(=O)[C@H](Cc2cc(F)cc(I)c2)NC(=O)CN(C)C(=O)[C@H](Cc2ccc(OC)cc2)N(C)C(=O)[C@@H]2CCN2C(=O)[C@H](C)N(C)C(=O)[C@H]([C@@H](C)CC)NC(=O)[C@H](CC)N(C)C(=O)C[C@@H](C(=O)N2CCCCC2)N(C)C(=O)[C@H](CC(C)C)NC(=O)C(C)(C)N(C)C1=O` [Compound 1226] ([NMeAbu]I[NMeA][Aze][NMeY](Me)[Sar][X126][Nle][NMeAib]L[NMeD]-Piperidide; lactam N-11) cannot be ordered by IC50: over 500 nM for the first, over 500 nM for the second.

`CC[C@H](C)[C@@H]1NC(=O)[C@H](CC(F)(F)F)N(C)C(=O)C[C@@H](C(=O)N2CCCC2)N(C)C(=O)[C@H](C2CCCCC2)N(C)C(=O)C2(CCCC2)NC(=O)[C@@H]2CC(F)(F)CN2C(=O)[C@H](CCc2ccc(C(F)(F)F)c(Cl)c2)NC(=O)CN(C)C(=O)[C@H](Cc2ccc(C(F)(F)F)cc2)N(C)C(=O)CN(C)C(=O)CN(C)C1=O` [Compound 1196] ([NMeAbu(4,4,4-F3)]I[Sar][Sar][NMePhe(4-CF3)][Sar][hPhe(3-Cl-4-CF3)][Pro(4,4-F2)][Ac5c][NMeChg][NMeD]-Pyrrolidide; lactam N-11) and `CCC[C@H]1C(=O)N[C@@H]([C@@H](C)CC)C(=O)N(C)CC(=O)N(C)CC(=O)N(C)[C@@H](CC2CCCCC2)C(=O)N(C)CC(=O)N[C@@H](CCc2ccc(C(F)(F)F)c(Cl)c2)C(=O)N2CC(F)(F)C[C@H]2C(=O)NC2(CCCC2)C(=O)N(C)[C@@H](C2CCCCC2)C(=O)N(C)[C@H](C(=O)N2CCCC2)CC(=O)N1C` [Compound 1232] ([NMeNva]I[Sar][Sar][NMeCha][Sar][hPhe(3-Cl-4-CF3)][Pro(4,4-F2)][Ac5c][NMeChg][NMeD]-Pyrrolidide; lactam N-11) cannot be ordered by IC50: at most 20 nM for the first, at most 20 nM for the second.

`CCCC[C@@H]1NC(=O)[C@](C)(Cc2cccc(I)c2)NC(=O)CN(C)C(=O)[C@H](Cc2ccc(Cl)cc2)N(C)C(=O)CN(C)C(=O)CN(C)C(=O)[C@H]([C@@H](C)CC)NC(=O)[C@H](CC(C)C)N(C)C(=O)C[C@@H](C(=O)N2CCCCC2)N(C)C(=O)[C@H](CC(C)C)NC(=O)C(C)(C)N(C)C1=O` [Compound 1202] ([NMeL]I[Sar][Sar][NMePhe(4-Cl)][Sar][X105][Nle][NMeAib]L[NMeD]-Piperidide; lactam N-11) and `CCCC[C@@H]1NC(=O)[C@H](Cc2ccc(Br)s2)NC(=O)CN(C)C(=O)[C@H](Cc2ccc(Cl)cc2)N(C)C(=O)CN(C)C(=O)CN(C)C(=O)[C@H]([C@@H](C)CC)NC(=O)[C@H](CC(C)C)N(C)C(=O)C[C@@H](C(=O)N2CCCCC2)N(C)C(=O)[C@H](CC(C)C)NC(=O)C(C)(C)N(C)C1=O` [Compound 1216] ([NMeL]I[Sar][Sar][NMePhe(4-Cl)][Sar][X64][Nle][NMeAib]L[NMeD]-Piperidide; lactam N-11) cannot be ordered by IC50: over 500 nM for the first, over 500 nM for the second.

First: CC[C@H](C)[C@@H]1NC(=O)[C@H](CC(C)C)N(C)C(=O)C[C@@H](C(=O)N2C3CCC2COC3)N(C)C(=O)[C@H](C2CCCC2)N(C)C(=O)C2(CCCC2)NC(=O)[C@@H]2CCCN2C(=O)[C@H](CCc2cc(F)c(C(F)(F)F)c(F)c2)NC(=O)CN(C)C(=O)[C@H](Cc2ccc(C)cc2)N(CC)C(=O)[C@@H]2CCN2C(=O)[C@H](C)N(C)C1=O [Compound 1215] ([NMeL]I[NMeA][Aze][NEtPhe(4-Me)][Sar][hPhe(3,5-F2-4-CF3)]P[Ac5c][NMeGly(cPent)][NMeD]-{3Oxa8azabicyclo(3.2.1)octane}; lactam N-11)
Second: Cc1ccc(C[C@H]2C(=O)N(C)CC(=O)N[C@@H](CCc3ccc(C(F)(F)F)c(Cl)c3)C(=O)N3CCC[C@H]3C(=O)NC3(CCCC3)C(=O)N(C)[C@@H](C3CCCC3)C(=O)N[C@H](C)CC(=O)N(C)[C@@H](CC(C)C)C(=O)N[C@@H](C)C(=O)N(C)[C@@H](C)C(=O)N3CC[C@H]3C(=O)N2C)cc1 [Compound 1225] (cyclo(A[NMeA][Aze][NMePhe(4-Me)][Sar][hPhe(3-Cl-4-CF3)]P[Ac5c][NMeGly(cPent)][d(β3hA)][NMeL]))
The IC50 of the first is lower: at most 20 nM for the first, over 500 nM for the second. The first is the more potent here.

`C#CC[C@@H]1NC(=O)[C@H](Cc2cccc(I)c2)NC(=O)CN(C)C(=O)[C@H](Cc2ccc(OC(F)(F)F)cc2)N(C)C(=O)CN(C)C(=O)CN(C)C(=O)[C@H]([C@@H](C)CC)NC(=O)[C@H](CC(C)C)N(C)C(=O)C[C@@H](C(=O)N2CCCCC2)N(C)C(=O)[C@H](CC(C)C)NC(=O)C(C)(C)N(C)C1=O` [Compound 1219] ([NMeL]I[Sar][Sar][NMeY](CF3)[Sar][Phe(3-I)][Pra][NMeAib]L[NMeD]-Piperidide; lactam N-11) and `C#CC[C@@H]1NC(=O)[C@H](Cc2cccc(I)c2)NC(=O)CN(C)C(=O)[C@H](Cc2ccc(F)cc2)N(C)C(=O)[C@@H]2CCN2C(=O)[C@H](C)N(C)C(=O)[C@H]([C@@H](C)CC)NC(=O)[C@H](CC(C)C)N(C)C(=O)C[C@@H](C(=O)N2CCCCC2)N(C)C(=O)[C@H](CC(C)C)NC(=O)C(C)(C)N(C)C1=O` [Compound 1230] ([NMeL]I[NMeA][Aze][NMePhe(4-F)][Sar][Phe(3-I)][Pra][NMeAib]L[NMeD]-Piperidide; lactam N-11) cannot be ordered by IC50: over 500 nM for the first, over 500 nM for the second.

In the case of `CC[C@H](C)[C@@H]1NC(=O)[C@H](CC(C)C)N(C)C(=O)C[C@@H](C)NC(=O)[C@H](C2CCCC2)N(C)C(=O)[C@H](C)NC(=O)[C@@H]2CCCN2C(=O)[C@H](CCc2ccc(C(F)(F)F)c(Cl)c2)NC(=O)CN(C)C(=O)[C@H](Cc2ccc(C)cc2)N(C)C(=O)[C@@H]2CCN2C(=O)[C@H](C)N(C)C1=O` [Compound 1221] (cyclo(A[NMeGly(cPent)][d(β3hA)][NMeL]I[NMeA][Aze][NMePhe(4-Me)][Sar][hPhe(3-Cl-4-CF3)]P)), the IC50 is reported as over 500 nM.
